Results published in publication PMC12505902, “Inhibitors of trehalose-6-phosphate synthase activity in fungal pathogens compromise thermal tolerance pathways” (mBio, 2025).

Assays:
[1] = tested on: C. albicans WT strain SC5314; assay: C. albicans filamentation assay (serum-induced); assay type: cell-based; details: YPD plus 10% fetal bovine serum, 37°C, 2 hours; sub-MIC concentration (5 µM as printed)
[2] = tested on: C. glabrata; assay: Fungicidal spot assay on compound-free YPD plates; assay type: cell-based
Protocol: Fig 4 4456dh inhibits the growth of Candida and Cryptococcus species. […] 4456dh was administered at the concentrations indicated. Cultures were grown in YPD at the listed temperatures for 48 hours for Candida species and 72 hours for Cryptococcus species. Experimental temperatures reflect the temperatures at which the fungi experience heat stress. Left: relative growth of treated samples was calculated by averaging technical triplicates and normalizing the OD600 of each treated well to the average OD600 of the untreated WT controls, after the absorbance due to the compound was subtracted. The MIC80 values, calculated based on the OD600 values, are indicated in the white text on each heat map. […]
124 technical replicates. Growth, as determined by a reading of absorbance at 600 nm, was
125 normalized to untreated controls and was corrected for the absorbance of 4456dh in the YPD […]
129 overnight cultures was quantified by measuring the OD600 and corrected for the background
130 absorbance of the medium. Antifungal potency for 4456dh was assessed by minimum inhibitory […]
137 replicates. Growth, as determined by a reading of absorbance at 600 nm, was normalized to
138 untreated controls and was corrected for the absorbance of 4456dh in the YPD medium. […]
139 minimum inhibitory concentration causing 80% growth reduction, or MIC80, was determined based […]

For `Cn1cc(-c2csc(NC(=O)Cc3ccccn3)n2)cn1` [Compound 4456dh], the filamentation [1] was “complete inhibition of filamentation”, the fungicidal activity ([2]; 30°C exposure) was “no MIC or fungicidal activity was detected” and the “concentration from which fungicidal activity starts” value ([2]; 42°C exposure) was “approximately 7.8 µM”.
